# Measured values as given in ChEMBL document CHEMBL3232755, “Optimization of plasmepsin inhibitor by focusing on similar structural feature with chloroquine to avoid drug-resistant mechanism of Plasmodium falciparum” (Bioorg Med Chem Lett, 2014).
# How the values were obtained:
# Plasmodium falciparum [1] = assay: Resistance index, ratio of EC50 for chloroquine, mefloquine and pyrimethamine-resistant Plasmodium falciparum TM91C235 to EC50 for chloroquine-sensitive Plasmodium falciparum D6; format: functional
# Plasmodium falciparum [2] = assay: Antimalarial activity against chloroquine, mefloquine and pyrimethamine-resistant Plasmodium falciparum TM91C235 by SYBR green I staining-based fluorescence assay; format: functional, organism-based
# Plasmepsin II = Plasmepsin II (Plasmodium falciparum, UniProt P46925); assay: Inhibition of Plasmodium falciparum plasmepsin 2
# Chain of Plasmepsin II (P46925 whole entry): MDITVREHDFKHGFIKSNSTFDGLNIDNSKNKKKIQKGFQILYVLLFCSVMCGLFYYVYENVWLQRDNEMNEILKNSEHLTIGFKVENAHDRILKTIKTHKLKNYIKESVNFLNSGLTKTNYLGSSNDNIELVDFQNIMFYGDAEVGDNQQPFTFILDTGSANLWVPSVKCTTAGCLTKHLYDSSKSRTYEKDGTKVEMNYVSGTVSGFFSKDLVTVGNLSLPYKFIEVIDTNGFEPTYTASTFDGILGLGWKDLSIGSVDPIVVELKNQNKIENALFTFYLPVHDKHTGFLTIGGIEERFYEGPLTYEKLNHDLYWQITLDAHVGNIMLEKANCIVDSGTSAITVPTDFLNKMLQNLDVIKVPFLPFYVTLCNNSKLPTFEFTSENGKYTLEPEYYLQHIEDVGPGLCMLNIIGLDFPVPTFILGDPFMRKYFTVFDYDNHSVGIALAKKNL
# Plasmodium falciparum [3] = assay: Antimalarial activity against chloroquine-sensitive Plasmodium falciparum D6 by SYBR green I staining-based fluorescence assay; format: functional, organism-based
# Plasmodium falciparum [4] = assay: Antimalarial activity against chloroquine and pyrimethamine-resistant mefloquine-sensitive Plasmodium falciparum W2 by SYBR green I staining-based fluorescence assay; format: functional, organism-based
# Plasmodium falciparum [5] = assay: Resistance index, ratio of EC50 for chloroquine and pyrimethamine-resistant mefloquine-sensitive Plasmodium falciparum W2 to EC50 for chloroquine-sensitive Plasmodium falciparum D6; format: functional
Structure (SMILES),Ratio EC50 (Plasmodium falciparum [1]),EC50 (Plasmodium falciparum [2]),Ki (Plasmepsin II),EC50 (Plasmodium falciparum [3]),EC50 (Plasmodium falciparum [4]),Ratio EC50 (Plasmodium falciparum [5])
CNCCN(C)c1cc(C)c(OCC(=O)N[C@@H](Cc2ccccc2)[C@H](O)C(=O)N2CSC(C)(C)[C@H]2C(=O)N[C@H]2c3ccccc3C[C@H]2O)c(C)c1,4.5,860 nM,–,–,–,–
CCNCCNc1cc(C)c(OCC(=O)N[C@@H](Cc2ccccc2)[C@H](O)C(=O)N2CSC(C)(C)[C@H]2C(=O)N[C@H]2c3ccccc3C[C@H]2O)c(C)c1,8.6,1900 nM,–,–,–,–
Cc1cc(NCCCl)cc(C)c1OCC(=O)N[C@@H](Cc1ccccc1)[C@H](O)C(=O)N1CSC(C)(C)[C@H]1C(=O)N[C@H]1c2ccccc2C[C@H]1O,<=2,–,5.5 nM,–,–,–
COC(CNc1cc(C)c(OCC(=O)N[C@@H](Cc2ccccc2)[C@H](O)C(=O)N2CSC(C)(C)[C@H]2C(=O)N[C@H]2c3ccccc3C[C@H]2O)c(C)c1)OC,<=2,–,11 nM,850 nM,–,–
CCOP(=O)(CCNc1cc(C)c(OCC(=O)N[C@@H](Cc2ccccc2)[C@H](O)C(=O)N2CSC(C)(C)[C@H]2C(=O)N[C@H]2c3ccccc3C[C@H]2O)c(C)c1)OCC,<=2,–,22 nM,600 nM,–,–
Cc1cccc(CNc2cc(C)c(OCC(=O)N[C@@H](Cc3ccccc3)[C@H](O)C(=O)N3CSC(C)(C)[C@H]3C(=O)N[C@H]3c4ccccc4C[C@H]3O)c(C)c2)n1,<=2,–,4.4 nM,–,–,–
Cc1cc(NCc2c[nH]cn2)cc(C)c1OCC(=O)N[C@@H](Cc1ccccc1)[C@H](O)C(=O)N1CSC(C)(C)[C@H]1C(=O)N[C@H]1c2ccccc2C[C@H]1O,<=2,–,4.8 nM,–,–,–
Cc1cc(NCc2ccnc3ccccc23)cc(C)c1OCC(=O)N[C@@H](Cc1ccccc1)[C@H](O)C(=O)N1CSC(C)(C)[C@H]1C(=O)N[C@H]1c2ccccc2C[C@H]1O,<=2,–,1.7 nM,500 nM,–,–
Cc1cc(NC(=O)CN)cc(C)c1OCC(=O)N[C@@H](Cc1ccccc1)[C@H](O)C(=O)N1CSC(C)(C)[C@H]1C(=O)N[C@H]1c2ccccc2C[C@H]1O,–,–,1.2 nM,–,–,–
Cc1cc(NC(=O)CCN)cc(C)c1OCC(=O)N[C@@H](Cc1ccccc1)[C@H](O)C(=O)N1CSC(C)(C)[C@H]1C(=O)N[C@H]1c2ccccc2C[C@H]1O,2.8,730 nM,2.3 nM,260 nM,–,–
Cc1cc(NC(=O)CCCN)cc(C)c1OCC(=O)N[C@@H](Cc1ccccc1)[C@H](O)C(=O)N1CSC(C)(C)[C@H]1C(=O)N[C@H]1c2ccccc2C[C@H]1O,0.41,1300 nM,1.1 nM,3200 nM,–,–
Cc1cc(NC(=O)CCCCN)cc(C)c1OCC(=O)N[C@@H](Cc1ccccc1)[C@H](O)C(=O)N1CSC(C)(C)[C@H]1C(=O)N[C@H]1c2ccccc2C[C@H]1O,0.34,620 nM,1 nM,1800 nM,–,–
Cc1cc(NC(=O)CCCCCN)cc(C)c1OCC(=O)N[C@@H](Cc1ccccc1)[C@H](O)C(=O)N1CSC(C)(C)[C@H]1C(=O)N[C@H]1c2ccccc2C[C@H]1O,0.28,720 nM,5.7 nM,2600 nM,–,–
Cc1cc(NC(=O)CN2CCOCC2)cc(C)c1OCC(=O)N[C@@H](Cc1ccccc1)[C@H](O)C(=O)N1CSC(C)(C)[C@H]1C(=O)N[C@H]1c2ccccc2C[C@H]1O,–,–,4.3 nM,–,–,–
Cc1cc(NCc2ccccn2)cc(C)c1OCC(=O)N[C@@H](Cc1ccccc1)[C@H](O)C(=O)N1CSC(C)(C)[C@H]1C(=O)N[C@H]1c2ccccc2C[C@H]1O,–,–,–,–,730 nM,1.3
